Legend:
[1] = mTHPC concentration in tumor, skin and plasma of mice after injection (Trial 1 mTHPC, Trial 2 LMF); format: in vivo, mouse
Protocol: FIG. 1—Graph showing meta-tetra(hydroxyphenyl)chlorin (“mTHPC”) concentration in tumor, skin and blood of a mouse after a dose of 10 μg mTHPC.
FIG. 2—Graph showing mTHPC concentration in tumor, skin and blood of a mouse after a dose of 5 μg mTHPC solubilized in Lipofundin MCT 10% (“LMF”).
This formulation is abbreviated “LMF”.

[2] = Skin fluorescence in a dog after simultaneous injection of mTHPC and Lipofundin; format: in vivo; settings: mTHPC diluted in Lipofundin to 0.75 mg/ml, simultaneous bolus injection
Protocol: FIG. 4—Graph of results of skin fluorescence in sarcoma and skin of a dog after simultaneous injection of mTHPC and Lipofundin.
In this example, a standard mTHPC solution, having 4 mg of mTHPC per ml of solution (4 mg/ml), was diluted in Lipofundin until the concentration of mTHPC in the mixture is 0.75 mg/ml. The mixture was then injected, thus both the photosensitizer and phospholipids were simultaneously injected. […] As is shown in FIG. 4, after only 6 hours, the fluorescence of the skin was substantially the same as that measured prior to injection, thus the skin was no longer photosensitive after this short amount of time.

[3] = Clinical monitoring of Foscan skin fluorescence by OBS in patients with basal-cell cancer after Foscan PDT; format: in vivo, human; settings: ten patients
Protocol: Ten patients (6 male, 4 female) with basal-cell cancer (BCC) of the skin were treated with Foscan PDT course having a drug dose of 0.05 mg/kg, a drug-light interval 48 hours, and a 50 J/cm^2 light dose. Immediately after the laser treatment these patients were given intravenous drop infusions of 10% Lipofundin (250 ml). Patients were administered a second infusion of 10% Lipofundin solution (250 ml) the next day.
A group of ten patients (6 male, 4 female) with BCC of the skin, were administered Foscan PDT course having a drug dose of 0.05 mg/kg, a drug-light interval 48 hours, and a 50 J/cm^2 light dose. No 10% Lipofundin infusions were administered post-irradiation.
A computer-based spectrometer Optical Biopsy System (OBS) specially tuned for clinical monitoring of skin fluorescence was used to detect and measure skin fluorescence. The OBS uses a 400 nm diode laser to induce FOSCAN fluorescence (wavelength 655 nm) which is then detected and measured by the OBS spectrometer.
Fluorescence measurements were performed in intact skin of the cheek at certain time points after Foscan injection. Fluorescence monitoring began 2 days after Foscan administration and was continued for 7 weeks following Foscan administration. All measurements were performed by using contact tip (FD-1 Handstuck). Each fluorescence measurement was performed 4 times, all results were recorded, and the average value was used for further analysis.

## Oc1cccc(-c2c3nc(c(-c4cccc(O)c4)c4ccc([nH]4)c(-c4cccc(O)c4)c4nc(c(-c5cccc(O)c5)c5ccc2[nH]5)CC4)C=C3)c1 [mTHPC, meta-tetra(hydroxyphenyl)chlorin]
[1]; Trial 1: mTHPC 10 μg per mouse, Trial 2: LMF, 5 μg mTHPC per mouse solubilized in Lipofundin
  time of peak tumor concentration of mTHPC: 24 h
[1]; after 24 hours, Trial 1 dose twice that of Trial 2
  skin concentration in Trial 1 relative to skin concentration after LMF injection: almost four times
[1]; mTHPC 10 μg per mouse, 12 hours, versus LMF peak
  tumor concentration in Trial 1 after 12 hours relative to peak tumor concentration in Trial 2: ⅔
[1]; skin, other: injection (site not specified), Trial 1, mTHPC 10 μg per mouse, after 24 hours
  concentration at 24 h: ~260 ng/g
[2]
  skin fluorescence after injection: rapid decrease in skin fluorescence
  time after which skin fluorescence was substantially the same as prior to injection: 6 h
[3]; 7 days after Foscan application, Control Group: Foscan 0.05 mg/kg PDT, no Lipofundin infusions
  Number of patients exhibiting no detectable skin fluorescence as detected by OBS: 0
[3]; 7 days after Foscan application, Experimental Group: Foscan 0.05 mg/kg PDT plus two 250 ml 10% Lipofundin infusions after irradiation
  Number of patients exhibiting no detectable skin fluorescence as detected by OBS: 0
[3]; 14 days after Foscan application, Control Group: Foscan 0.05 mg/kg PDT, no Lipofundin infusions
  Number of patients exhibiting no detectable skin fluorescence as detected by OBS: 0
[3]; 14 days after Foscan application, Experimental Group: Foscan 0.05 mg/kg PDT plus two 250 ml 10% Lipofundin infusions after irradiation
  Number of patients exhibiting no detectable skin fluorescence as detected by OBS: 2
[3]; 21 days after Foscan application, Control Group: Foscan 0.05 mg/kg PDT, no Lipofundin infusions
  Number of patients exhibiting no detectable skin fluorescence as detected by OBS: 2
[3]; 21 days after Foscan application, Experimental Group: Foscan 0.05 mg/kg PDT plus two 250 ml 10% Lipofundin infusions after irradiation
  Number of patients exhibiting no detectable skin fluorescence as detected by OBS: 5
[3]; 28 days after Foscan application, Control Group: Foscan 0.05 mg/kg PDT, no Lipofundin infusions
  Number of patients exhibiting no detectable skin fluorescence as detected by OBS: 7
[3]; 28 days after Foscan application, Experimental Group: Foscan 0.05 mg/kg PDT plus two 250 ml 10% Lipofundin infusions after irradiation
  Number of patients exhibiting no detectable skin fluorescence as detected by OBS: 10
[3]; 35 days after Foscan application, Control Group: Foscan 0.05 mg/kg PDT, no Lipofundin infusions
  Number of patients exhibiting no detectable skin fluorescence as detected by OBS: 10
[3]; 35 days after Foscan application, Experimental Group: Foscan 0.05 mg/kg PDT plus two 250 ml 10% Lipofundin infusions after irradiation
  Number of patients exhibiting no detectable skin fluorescence as detected by OBS: 10
